Measurements from patent publication US8097654B2, “Radiolabeled 3-[3-(benzoyl-amido)benzyloxy]aspartic acid derivative and method of producing the same” (Suntory Holdings Limited, priority 2004, dated 2012).
Values belong to the compound of their own block, whether it stands above or below them.

Legend:
EAAT2 = EAAT2 (Homo sapiens, UniProt P43004); assay: Inhibition of [14C]-glutamic acid uptake by EAAT2 expressed in MDCK or COS-1 cells; format: cell-based; parameters: expressed in transfected cells; details: glutamate transporter, subtype not given
Description: In accordance with a known method (Shimamoto, K. et al., Mol. Pharmacol. 53, 195-201, 1998; Bioorg. Med. Chem. Lett. 10, 2407-2410, 2000), the inhibitory activity was assayed as the ability to inhibit the uptake of [^14C]-glutamic acid by human EAAT2 and EAAT3 stably expressed in MDCK (Madin-Darby canine kidney) cells or transiently expressed in COS-1 cells. The glutamate uptake activity was assayed by incubating a mixture of 1 μM of L-[^14C]-glutamic acid with a sample compound at a predetermined concentration for 12 minutes, lysing the cells and then measuring the radioactivity incorporated into the cells with a liquid scintillator. The amount of uptake was expressed in percentage by referring the amount of uptake in the absence of a test compound (i.e., the buffer alone) as 100% and referring the amount of uptake in a sodium-free solution as 0%.

[1] = Biodistribution of radioactivity after intravenous injection in mice; details: mean ± S.D.
[2] = Octanol-water partition coefficient (Log P); format: physicochemical; details: octanol/phosphate buffer, mean ± S.D.
Description: Equal amounts of octanol and a phosphate buffer were mixed together and [^125I]I-BzA-TBOA was added thereto. After repeatedly shaking for 1 minute and allowing to stand for 1 minute three times, the mixture was allowed to stand for 20 minutes. After repeating this procedure three times, it was centrifuged (1,000×g, 10 min, 4° C.) and the radioactivity of each layer was measured. Thus, the partition coefficient was calculated (Table 1).

[3] = 2 min after i.v. administration
[4] = 5 min after i.v. administration
[5] = 15 min after i.v. administration
[6] = 30 min after i.v. administration

EAAT2, sequence (P43004 whole entry): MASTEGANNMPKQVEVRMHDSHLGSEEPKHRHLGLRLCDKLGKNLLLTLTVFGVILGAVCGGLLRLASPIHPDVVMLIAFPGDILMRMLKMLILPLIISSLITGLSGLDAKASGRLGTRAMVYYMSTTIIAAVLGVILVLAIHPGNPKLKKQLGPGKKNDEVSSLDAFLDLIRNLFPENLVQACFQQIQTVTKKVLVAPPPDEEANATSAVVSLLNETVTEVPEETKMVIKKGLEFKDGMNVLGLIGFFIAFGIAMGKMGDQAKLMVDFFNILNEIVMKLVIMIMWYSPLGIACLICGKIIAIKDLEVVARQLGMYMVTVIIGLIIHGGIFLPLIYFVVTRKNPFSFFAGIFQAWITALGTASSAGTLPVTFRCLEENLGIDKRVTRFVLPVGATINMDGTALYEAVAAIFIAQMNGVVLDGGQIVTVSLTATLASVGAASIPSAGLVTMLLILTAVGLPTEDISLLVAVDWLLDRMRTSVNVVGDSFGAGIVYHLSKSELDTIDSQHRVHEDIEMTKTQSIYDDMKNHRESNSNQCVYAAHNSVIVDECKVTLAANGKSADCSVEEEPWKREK

- IC50 for glutamate transporter (in words) (EAAT2): several ten nM order
SMILES: N[C@H](C(=O)O)[C@H](OCc1cccc(NC(=O)c2ccc(F)cc2)c1)C(=O)O [F-BzA-TBOA]

- Octanol/water partition coefficient (Log P) ([2]; PH 3.0): 0.641 ± 0.006
- Octanol/water partition coefficient (Log P) ([2]; PH 7.0): −0.821 ± 0.003
- Octanol/water partition coefficient (Log P) ([2]; PH 7.4): −0.849 ± 0.006
- Octanol/water partition coefficient (Log P) ([2]; PH 8.0): −0.936 ± 0.007
SMILES: N[C@H](C(=O)O)[C@H](OCc1cccc(NC(=O)c2ccc([125I])cc2)c1)C(=O)O [[^125I]I-BzA-TBOA, (2S,3S)-3-[3-(4-[^125I]iodobenzoylamino)benzyloxy]aspartic acid]
- Radioactivity in Blood [1, 3]: 2.29 ± 0.23 percentage of injection dose per gram of each tissue
- Radioactivity in Blood [1, 4]: 1.58 ± 0.25 percentage of injection dose per gram of each tissue
- Radioactivity in Blood [1, 5]: 0.67 ± 0.19 percentage of injection dose per gram of each tissue
- Radioactivity in Blood [1, 6]: 0.40 ± 0.12 percentage of injection dose per gram of each tissue
- Radioactivity in Blood ([1]; 1 hr after i.v. administration): 0.16 ± 0.04 percentage of injection dose per gram of each tissue
- Radioactivity in Blood ([1]; 2 hr after i.v. administration): 0.07 ± 0.01 percentage of injection dose per gram of each tissue
- Radioactivity in Brain [1, 3]: 0.21 ± 0.09 percentage of injection dose per gram of each tissue
- Radioactivity in Brain [1, 4]: 0.19 ± 0.18 percentage of injection dose per gram of each tissue
- Radioactivity in Brain [1, 5]: 0.06 ± 0.09 percentage of injection dose per gram of each tissue
- Radioactivity in Brain [1, 6]: 0.10 ± 0.13 percentage of injection dose per gram of each tissue
- Radioactivity in Brain ([1]; 1 hr after i.v. administration): 0.01 ± 0.02 percentage of injection dose per gram of each tissue
- Radioactivity in Brain ([1]; 2 hr after i.v. administration): 0.18 ± 0.23 percentage of injection dose per gram of each tissue
- Radioactivity in Heart [1, 3]: 0.93 ± 0.06 percentage of injection dose per gram of each tissue
- Radioactivity in Heart [1, 4]: 0.64 ± 0.13 percentage of injection dose per gram of each tissue
- Radioactivity in Heart [1, 5]: 0.33 ± 0.04 percentage of injection dose per gram of each tissue
- Radioactivity in Heart [1, 6]: 0.19 ± 0.14 percentage of injection dose per gram of each tissue
- Radioactivity in Heart ([1]; 1 hr after i.v. administration): 0.04 ± 0.02 percentage of injection dose per gram of each tissue
- Radioactivity in Heart ([1]; 2 hr after i.v. administration): 0.00 ± 0.00 percentage of injection dose per gram of each tissue
- Radioactivity in Intestine [1, 3]: 1.76 ± 0.15 percentage of injection dose per gram of each tissue
- Radioactivity in Intestine [1, 4]: 4.51 ± 1.36 percentage of injection dose per gram of each tissue
- Radioactivity in Intestine [1, 5]: 12.28 ± 0.72 percentage of injection dose per gram of each tissue
- Radioactivity in Intestine [1, 6]: 15.91 ± 1.65 percentage of injection dose per gram of each tissue
- Radioactivity in Intestine ([1]; 1 hr after i.v. administration): 20.05 ± 6.29 percentage of injection dose per gram of each tissue
- Radioactivity in Intestine ([1]; 2 hr after i.v. administration): 23.69 ± 1.58 percentage of injection dose per gram of each tissue
- Radioactivity in Kidney [1, 3]: 15.17 ± 2.34 percentage of injection dose per gram of each tissue
- Radioactivity in Kidney [1, 4]: 16.02 ± 0.57 percentage of injection dose per gram of each tissue
- Radioactivity in Kidney [1, 5]: 14.47 ± 2.59 percentage of injection dose per gram of each tissue
- Radioactivity in Kidney [1, 6]: 8.29 ± 2.63 percentage of injection dose per gram of each tissue
- Radioactivity in Kidney ([1]; 1 hr after i.v. administration): 2.08 ± 0.15 percentage of injection dose per gram of each tissue
- Radioactivity in Kidney ([1]; 2 hr after i.v. administration): 1.03 ± 0.23 percentage of injection dose per gram of each tissue
- Radioactivity in Liver [1, 3]: 28.71 ± 1.97 percentage of injection dose per gram of each tissue
- Radioactivity in Liver [1, 4]: 22.52 ± 4.43 percentage of injection dose per gram of each tissue
- Radioactivity in Liver [1, 5]: 11.11 ± 0.24 percentage of injection dose per gram of each tissue
- Radioactivity in Liver [1, 6]: 4.96 ± 1.65 percentage of injection dose per gram of each tissue
- Radioactivity in Liver ([1]; 1 hr after i.v. administration): 1.95 ± 0.46 percentage of injection dose per gram of each tissue
- Radioactivity in Liver ([1]; 2 hr after i.v. administration): 1.50 ± 0.43 percentage of injection dose per gram of each tissue
- Radioactivity in Lung [1, 3]: 3.11 ± 0.22 percentage of injection dose per gram of each tissue
- Radioactivity in Lung [1, 4]: 2.44 ± 0.59 percentage of injection dose per gram of each tissue
- Radioactivity in Lung [1, 5]: 1.39 ± 0.12 percentage of injection dose per gram of each tissue
- Radioactivity in Lung [1, 6]: 0.64 ± 0.42 percentage of injection dose per gram of each tissue
- Radioactivity in Lung ([1]; 1 hr after i.v. administration): 0.26 ± 0.06 percentage of injection dose per gram of each tissue
- Radioactivity in Lung ([1]; 2 hr after i.v. administration): 0.10 ± 0.02 percentage of injection dose per gram of each tissue
- Radioactivity in Pancreas [1, 3]: 2.10 ± 0.24 percentage of injection dose per gram of each tissue
- Radioactivity in Pancreas [1, 4]: 2.13 ± 0.26 percentage of injection dose per gram of each tissue
- Radioactivity in Pancreas [1, 5]: 0.94 ± 0.02 percentage of injection dose per gram of each tissue
- Radioactivity in Pancreas [1, 6]: 0.33 ± 0.23 percentage of injection dose per gram of each tissue
- Radioactivity in Pancreas ([1]; 1 hr after i.v. administration): 0.10 ± 0.06 percentage of injection dose per gram of each tissue
- Radioactivity in Pancreas ([1]; 2 hr after i.v. administration): 0.06 ± 0.04 percentage of injection dose per gram of each tissue
- Radioactivity in Spleen [1, 3]: 1.11 ± 0.12 percentage of injection dose per gram of each tissue
- Radioactivity in Spleen [1, 4]: 0.65 ± 0.12 percentage of injection dose per gram of each tissue
- Radioactivity in Spleen [1, 5]: 0.30 ± 0.04 percentage of injection dose per gram of each tissue
- Radioactivity in Spleen [1, 6]: 0.11 ± 0.07 percentage of injection dose per gram of each tissue
- Radioactivity in Spleen ([1]; 1 hr after i.v. administration): 0.03 ± 0.04 percentage of injection dose per gram of each tissue
- Radioactivity in Spleen ([1]; 2 hr after i.v. administration): 0.03 ± 0.03 percentage of injection dose per gram of each tissue
- Radioactivity in Stomach [1, 3]: 1.12 ± 0.20 percentage of injection dose per gram of each tissue
- Radioactivity in Stomach [1, 4]: 0.78 ± 0.22 percentage of injection dose per gram of each tissue
- Radioactivity in Stomach [1, 5]: 0.88 ± 0.13 percentage of injection dose per gram of each tissue
- Radioactivity in Stomach [1, 6]: 0.58 ± 0.40 percentage of injection dose per gram of each tissue
- Radioactivity in Stomach ([1]; 1 hr after i.v. administration): 0.74 ± 0.80 percentage of injection dose per gram of each tissue
- Radioactivity in Stomach ([1]; 2 hr after i.v. administration): 0.48 ± 0.19 percentage of injection dose per gram of each tissue
